Data on 23 molecules can be found in patent US8404679B2, “Pyrrolidine derivatives as NK2 receptor antagonists” (Hoffmann-La Roche Inc., priority 2008, dated 2013).

Usually Ki stands for a dissociation constant, usually derived from enzyme kinetics or from competition with a known ligand.

The experiment has as its target T1, human NK2 receptor (Homo sapiens, UniProt P21452).
T1 construct: purchased Perkin Elmer biosignal Inc. 6110510
T1 sequence (P21452 1-398): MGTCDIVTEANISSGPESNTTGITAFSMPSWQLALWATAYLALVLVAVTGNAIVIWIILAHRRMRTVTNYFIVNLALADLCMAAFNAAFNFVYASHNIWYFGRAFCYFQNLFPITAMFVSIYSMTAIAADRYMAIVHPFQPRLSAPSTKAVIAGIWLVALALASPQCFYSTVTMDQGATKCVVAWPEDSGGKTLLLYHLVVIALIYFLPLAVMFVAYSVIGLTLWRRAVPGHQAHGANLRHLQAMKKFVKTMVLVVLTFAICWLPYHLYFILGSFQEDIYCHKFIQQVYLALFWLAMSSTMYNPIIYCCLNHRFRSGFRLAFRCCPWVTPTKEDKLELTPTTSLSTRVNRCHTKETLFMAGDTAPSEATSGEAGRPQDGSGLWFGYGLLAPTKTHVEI
In words: [3H]SR48968 competition binding assay. Conditions: [3H]SR48968 displacement, membranes of CHO cells stably expressing recombinant human NK2 receptor; Ki from IC50 by Cheng-Prussoff. In outline: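 Membranes from CHO cells stably expressing recombinant human NK2 were incubated 75 min at RT with [3H]SR48968 at its KD and 10 compound concentrations (0.0003–10 μM) in Tris-HCl pH 7.4, MnCl2, chymostatin, BSA. Filter-bound radioactivity was counted; Hill-fitted IC50 converted to Ki via Cheng-Prusoff.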
As to `COc1ccc(C(=O)N(C)[C@H]2CN(C(=O)C3CCN(CC4CC4)CC3)C[C@@H]2c2ccc(Cl)c(Cl)c2)cc1C(F)(F)F` (racemic) [Example 138, N-[(3RS,4SR)-1-(1-Cyclopropylmethyl-piperidine-4-carbonyl)-4-(3,4-dichloro-phenyl)-pyrrolidin-3-yl]-4-methoxy-N-methyl-3-trifluoromethyl-benzamide], the Ki was 0.5 nM.

As for `Cc1cc(C(=O)N(C)[C@@H]2CN(C(=O)N3CCN(S(C)(=O)=O)CC3)C[C@H]2c2ccc(Cl)c(Cl)c2)ccc1F` (racemic) [Example 25, rac-N-[(3S,4R)-4-(3,4-Dichloro-phenyl)-1-(4-methanesulfonyl-piperazine-1-carbonyl)-pyrrolidin-3-yl]-4-fluoro-3,N-dimethyl-benzamide], the inhibition constant (Ki) was 6.01 nM.

In the case of `COc1ccc(C(=O)N(C)[C@H]2CN(C(=O)C3CCN(C(=O)C4(C)CC4)CC3)C[C@@H]2c2ccc(Cl)cc2C)cc1C(F)(F)F` [Example 123, N-{(3R,4S)-4-(4-Chloro-2-methyl-phenyl)-1-[1-(1-methyl-cyclopropanecarbonyl)-piperidine-4-carbonyl]-pyrrolidin-3-yl}-4-methoxy-N-methyl-3-trifluoromethyl-benzamide], the Ki came to 38 nM.

Take `COc1ccc(C(=O)N2C[C@@H](N(C)C(=O)c3ccc(OC)c(C(F)(F)F)c3)[C@H](c3ccc(Cl)c(Cl)c3)C2)cc1` (racemic) [Example 44, rac-N-[(3S,4R)-4-(3,4-Dichloro-phenyl)-1-(4-methoxy-benzoyl)-pyrrolidin-3-yl]-4-methoxy-N-methyl-3-trifluoromethyl-benzamide]: the Ki came out at 4.24 nM.

For the molecule `COc1ccc(C(=O)N(C)[C@H]2CN(C(=O)C3CCNCC3)C[C@@H]2c2ccc(Cl)c(Cl)c2)cc1C(F)(F)F` (racemic) [Example 133, N-[(3RS,4SR)-4-(3,4-Dichloro-phenyl)-1-(piperidine-4-carbonyl)-pyrrolidin-3-yl]-4-methoxy-N-methyl-3-trifluoromethyl-benzamide], the Ki was found to be 0.2 nM.

With `COc1ccc(C(=O)N(C)[C@@H]2CN(C(=O)c3ccc(C#N)cc3)C[C@H]2c2ccc(Cl)c(Cl)c2)cc1F` (racemic) [Example 73, rac-N-[(3S,4R)-1-(4-Cyano-benzoyl)-4-(3,4-dichloro-phenyl)-pyrrolidin-3-yl]-3-fluoro-4-methoxy-N-methyl-benzamide], the Ki stood at 12.4 nM.

Regarding `CCc1cc(Cl)cc(C(=O)N(C)[C@@H]2CN(C(=O)c3ccc(C#N)cc3)C[C@H]2c2ccc(Cl)c(Cl)c2)n1` (racemic) [Example 68, rac-4-Chloro-6-ethyl-pyridine-2-carboxylic acid [(3S,4R)-1-(4-cyano-benzoyl)-4-(3,4-dichloro-phenyl)-pyrrolidin-3-yl]-methyl-amide], the inhibition constant Ki came out at 74.3 nM.

Regarding `CN(C(=O)c1ccc(Cl)c(C(F)(F)F)c1)[C@H]1CN(C(=O)C2CCN(CCC#N)CC2)C[C@@H]1c1ccc(Cl)cc1` (racemic) [Example 165, 4-Chloro-N-{(3RS,4SR)-4-(4-chloro-phenyl)-1-[1-(2-cyano-ethyl)-piperidine-4-carbonyl]-pyrrolidin-3-yl}-N-methyl-3-trifluoromethyl-benzamide], the inhibition constant Ki was 1.3 nM.

Take `CN(C(=O)c1ccc(C#N)cn1)[C@@H]1CN(C(=O)c2ccc(C#N)cc2)C[C@H]1c1ccc(Cl)c(Cl)c1` (racemic) [Example 70, rac-5-Cyano-pyridine-2-carboxylic acid [(3S,4R)-1-(4-cyano-benzoyl)-4-(3,4-dichloro-phenyl)-pyrrolidin-3-yl]-methyl-amide]: the Ki was 39.7 nM.

For the molecule `COc1ccc(C(=O)N(C)[C@H]2CN(C(=O)C3CCN(C(=O)C4(C)CC4)CC3)C[C@@H]2c2ccc(Cl)cc2)cc1C(F)(F)F` (racemic) [Example 87, N-{(3RS,4SR)-4-(4-Chloro-phenyl)-1-[1-(1-methyl-cyclopropanecarbonyl)-piperidine-4-carbonyl]-pyrrolidin-3-yl}-4-methoxy-N-methyl-3-trifluoromethyl-benzamide], the Ki came to 0.8 nM.

For the molecule `CN(C(=O)c1ccc(Cl)c(C(F)(F)F)c1)[C@H]1CN(C(=O)C2CCN(CC3CC3)CC2)C[C@@H]1c1ccc(Cl)c(Cl)c1` [Example 168, 4-Chloro-N-[(3R,4S)-1-(1-cyclopropylmethyl-piperidine-4-carbonyl)-4-(3,4-dichloro-phenyl)-pyrrolidin-3-yl]-N-methyl-3-trifluoromethyl-benzamide], the Ki amounted to 0.4 nM.

Consider `CN(C(=O)CC1CCCC1)[C@H]1CN(C(=O)C2CCN(C(=O)C3(C)CC3)CC2)C[C@@H]1c1ccc(Cl)c(Cl)c1` (racemic) [Example 113, 2-Cyclopentyl-N-{(3RS,4SR)-4-(3,4-dichloro-phenyl)-1-[1-(1-methyl-cyclopropanecarbonyl)-piperidine-4-carbonyl]-pyrrolidin-3-yl}-N-methyl-acetamide], for which the Ki turned out to be 2.9 nM.

Consider `COc1ccc(C(=O)N(C)[C@@H]2CN(C(=O)c3cc(C)cc(C)c3)C[C@H]2c2ccc(Cl)c(Cl)c2)cc1C(F)(F)F` (racemic) [Example 56, rac-N-[(3S,4R)-4-(3,4-Dichloro-phenyl)-1-(3,5-dimethyl-benzoyl)-pyrrolidin-3-yl]-4-methoxy-N-methyl-3-trifluoromethyl-benzamide], for which the Ki came out at 9.52 nM.

Regarding `COc1ccc(C(=O)N(C)[C@H]2CN(C(=O)C3CCN(CCC(C)(C)C)CC3)C[C@@H]2c2ccc(Cl)cc2)cc1C(F)(F)F` (racemic) [Example 111, N-{(3RS,4SR)-4-(4-Chloro-phenyl)-1-[1-(3,3-dimethyl-butyl)-piperidine-4-carbonyl]-pyrrolidin-3-yl}-4-methoxy-N-methyl-3-trifluoromethyl-benzamide], the Ki is 0.7 nM.

On to `CN(C(=O)c1ccc(C#N)nc1)[C@@H]1CN(C(=O)c2ccc(C#N)cc2)C[C@H]1c1ccc(Cl)c(Cl)c1` (racemic) [Example 80, rac-6-Cyano-N-[(3S,4R)-1-(4-cyano-benzoyl)-4-(3,4-dichloro-phenyl)-pyrrolidin-3-yl]-N-methyl-nicotinamide], for which the Ki is 40 nM.

For the molecule `CN(C(=O)CC(C)(C)C)[C@H]1CN(C(=O)C2CCN(C(=O)C3(C)CC3)CC2)C[C@@H]1c1ccc(Cl)c(Cl)c1` (racemic) [Example 115, N-{(3RS,4SR)-4-(3,4-Dichloro-phenyl)-1-[1-(1-methyl-cyclopropanecarbonyl)-piperidine-4-carbonyl]-pyrrolidin-3-yl}-3,3,N-trimethyl-butyramide], the Ki was 23 nM.

Consider `CN(C(=O)c1cc(C(F)(F)F)ccn1)[C@@H]1CN(C(=O)C2CCN(C(=O)C3(C)CC3)CC2)C[C@H]1c1ccc(Cl)c(Cl)c1` [Example 170, 4-Trifluoromethyl-pyridine-2-carboxylic acid {(3S,4R)-4-(3,4-dichloro-phenyl)-1-[1-(1-methyl-cyclopropanecarbonyl)-piperidine-4-carbonyl]-pyrrolidin-3-yl}-methyl-amide], for which the Ki was determined as 0.4 nM.

With `CN(C(=O)c1ccc(Cl)c(C(F)(F)F)c1)[C@H]1CN(C(=O)C2CCN(S(=O)(=O)C3CC3)CC2)C[C@@H]1c1ccc(Cl)cc1` (racemic) [Example 161, 4-Chloro-N-[(3RS,4SR)-4-(4-chloro-phenyl)-1-(1-cyclopropanesulfonyl-piperidine-4-carbonyl)-pyrrolidin-3-yl]-N-methyl-3-trifluoromethyl-benzamide], the Ki is 1.7 nM.

Take `CN(C(=O)C(C)(C)c1ccc(F)cc1)[C@H]1CN(C(=O)C2CCN(C(=O)C3(C)CC3)CC2)C[C@@H]1c1ccc(Cl)c(Cl)c1` (racemic) [Example 125, N-{(3RS,4SR)-4-(3,4-Dichloro-phenyl)-1-[1-(1-methyl-cyclopropanecarbonyl)-piperidine-4-carbonyl]-pyrrolidin-3-yl}-2-(4-fluoro-phenyl)-N-methyl-isobutyramide]: the inhibitory constant (Ki) was found to be 67.9 nM.

As to `CCc1cc(C(=O)N(C)[C@H]2CN(C(=O)C3CCN(C(=O)C4(C)CC4)CC3)C[C@@H]2c2ccc(Cl)c(Cl)c2)ccc1Cl` (racemic) [Example 174, 4-Chloro-N-{(3RS,4SR)-4-(3,4-dichloro-phenyl)-1-[1-(1-methyl-cyclopropanecarbonyl)-piperidine-4-carbonyl]-pyrrolidin-3-yl}-3-ethyl-N-methyl-benzamide], the Ki is 0.9 nM.

For `COc1ccc(C(=O)N(C)[C@H]2CN(C(=O)C3CCN(CCCS(C)(=O)=O)CC3)C[C@@H]2c2ccc(Cl)cc2)cc1C(F)(F)F` (racemic) [Example 131, N-{(3RS,4SR)-4-(4-Chloro-phenyl)-1-[1-(3-methanesulfonyl-propyl)-piperidine-4-carbonyl]-pyrrolidin-3-yl}-4-methoxy-N-methyl-3-trifluoromethyl-benzamide], the Ki worked out at 0.1 nM.

Regarding `CN(C(=O)Cc1ccc(F)cc1)[C@H]1CN(C(=O)c2ccc(N3CCOCC3)nc2)C[C@@H]1c1ccc(Cl)c(Cl)c1` (racemic) [Example 135, N-[(3RS,4SR)-4-(3,4-Dichloro-phenyl)-1-(6-morpholin-4-yl-pyridine-3-carbonyl)-pyrrolidin-3-yl]-2-(4-fluoro-phenyl)-N-methyl-acetamide], the Ki stood at 85.4 nM.

With `COc1cc(C(=O)N(C)[C@@H]2CN(C(=O)c3ccc(C#N)cc3)C[C@H]2c2ccc(Cl)c(Cl)c2)nc2ccccc12` (racemic) [Example 67, rac-4-Methoxy-quinoline-2-carboxylic acid [(3S,4R)-1-(4-cyano-benzoyl)-4-(3,4-dichloro-phenyl)-pyrrolidin-3-yl]-methyl-amide], the Ki worked out at 52.9 nM.
